Experimental data reported in ChEMBL document CHEMBL1201861, “Genomics of Drug Sensitity in Cancer screening data, Wellcome Trust Sanger Institute”.

How the values were obtained:
Experiment in all cases: cells
[1] = test system: LOX IMVI; format: functional, cell-based, Homo sapiens; conditions: Homo sapiens, LOX IMVI
Description: SANGER: Inhibition of human LOXIMVI cell growth in a cell viability assay.

[2] = test system: IST-SL1; format: functional, cell-based, Homo sapiens; conditions: Homo sapiens, IST-SL1;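 also: growth inhibition of human IST-SL1 cells, read out with a cell viability assay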
Description: SANGER: Inhibition of human IST-SL1 cell growth in a cell viability assay.

[3] = test system: HCC1187; format: functional, cell-based, Homo sapiens; conditions: Homo sapiens, HCC1187;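 also: growth inhibition of HCC1187 cells, read out with a cell viability assay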
Description: SANGER: Inhibition of human HCC1187 cell growth in a cell viability assay.

[4] = test system: NB10; format: functional, cell-based, Homo sapiens; conditions: Homo sapiens, NB10;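 also: growth inhibition of NB10 cells, read out by a cell viability assay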
Description: SANGER: Inhibition of human NB10 cell growth in a cell viability assay.

[5] = test system: NCI-H1648; format: functional, cell-based, Homo sapiens; conditions: Homo sapiens, NCI-H1648;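 also: cell viability assay measuring inhibition of NCI-H1648 cell growth, from the Sanger screening data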
Description: SANGER: Inhibition of human NCI-H1648 cell growth in a cell viability assay.

[6] = test system: MN-60; format: functional, cell-based, Homo sapiens; conditions: Homo sapiens, MN-60;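 also: growth inhibition of the MN-60 cell line, determined with a cell viability assay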
Description: SANGER: Inhibition of human MN-60 cell growth in a cell viability assay.

[7] = test system: P30-OHK; format: functional, cell-based, Homo sapiens; conditions: Homo sapiens, P30-OHK;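 also: growth inhibition of the P30-OHK cell line, read out with a cell viability assay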
Description: SANGER: Inhibition of human P30-OHK cell growth in a cell viability assay.

[8] = test system: COR-L88; format: functional, cell-based, Homo sapiens; conditions: Homo sapiens, COR-L88;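 also: growth inhibition of COR-L88 cells, read out with a cell viability assay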
Description: SANGER: Inhibition of human COR-L88 cell growth in a cell viability assay.

[9] = test system: SK-MEL-2; format: functional, cell-based, Homo sapiens; conditions: Homo sapiens, SK-MEL-2;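 also: growth inhibition of human SK-MEL-2 cells measured with a cell viability assay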
Description: SANGER: Inhibition of human SK-MEL-2 cell growth in a cell viability assay.

[10] = test system: TE-12; format: functional, cell-based, Homo sapiens; conditions: Homo sapiens, TE-12;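 also: growth inhibition of TE-12 cells, read out by a cell viability assay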
Description: SANGER: Inhibition of human TE-12 cell growth in a cell viability assay.

[11] = test system: A253 cell line; format: functional, cell-based, Homo sapiens; conditions: Homo sapiens, A253;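 also: growth inhibition of A253 cells, read out with a cell viability assay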
Description: SANGER: Inhibition of human A253 cell growth in a cell viability assay.

[12] = test system: NCI-H1092; format: functional, cell-based, Homo sapiens; conditions: Homo sapiens, NCI-H1092;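 also: cell growth inhibition measured with a cell viability assay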
Description: SANGER: Inhibition of human NCI-H1092 cell growth in a cell viability assay.

[13] = test system: DJM-1; format: functional, cell-based, Homo sapiens; conditions: Homo sapiens, DJM-1;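 also: growth inhibition of human DJM-1 cells, read out by a cell viability assay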
Description: SANGER: Inhibition of human DJM-1 cell growth in a cell viability assay.

[14] = test system: Calu-6; format: functional, cell-based, Homo sapiens; conditions: Homo sapiens, Calu-6;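 also: growth of human Calu-6 cells, read out by a cell viability assay, IC50 marking inhibition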
Description: SANGER: Inhibition of human Calu-6 cell growth in a cell viability assay.

[15] = test system: NCI-H1770; format: functional, cell-based, Homo sapiens; conditions: Homo sapiens, NCI-H1770;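 also: growth inhibition of NCI-H1770 cells determined with a viability readout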
Description: SANGER: Inhibition of human NCI-H1770 cell growth in a cell viability assay.

[16] = test system: NCI-H446; format: functional, cell-based, Homo sapiens; conditions: Homo sapiens, NCI-H446;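 also: growth inhibition of NCI-H446 cells determined by a cell viability assay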
Description: SANGER: Inhibition of human NCI-H446 cell growth in a cell viability assay.

[17] = test system: CGTH-W-1; format: functional, cell-based, Homo sapiens; conditions: Homo sapiens, CGTH-W-1;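 also: growth inhibition of human CGTH-W-1 cells measured by cell viability assay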
Description: SANGER: Inhibition of human CGTH-W-1 cell growth in a cell viability assay.

[18] = test system: NCI-H1395; format: functional, cell-based, Homo sapiens; conditions: Homo sapiens, NCI-H1395;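 also: cell viability assay read-out quantifying reduced proliferation of human NCI-H1395 cells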
Description: SANGER: Inhibition of human NCI-H1395 cell growth in a cell viability assay.

[19] = test system: ACN; format: functional, cell-based, Homo sapiens; conditions: Homo sapiens, ACN;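 also: growth inhibition of the human ACN cell line, read out via cell viability testing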
Description: SANGER: Inhibition of human ACN cell growth in a cell viability assay.

[20] = test system: BE-13; format: functional, cell-based, Homo sapiens; conditions: Homo sapiens, BE-13;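 also: growth inhibition of human BE-13 cells, measured with a cell viability assay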
Description: SANGER: Inhibition of human BE-13 cell growth in a cell viability assay.

[21] = test system: HEL; format: functional, cell-based, Homo sapiens; conditions: Homo sapiens, HEL;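 also: growth inhibition of HEL cells, read out with a cell viability assay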
Description: SANGER: Inhibition of human HEL cell growth in a cell viability assay.

[22] = test system: MHH-NB-11; format: functional, cell-based, Homo sapiens; conditions: Homo sapiens, MHH-NB-11;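 also: growth inhibition of human MHH-NB-11 cells, read out by a cell viability assay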
Description: SANGER: Inhibition of human MHH-NB-11 cell growth in a cell viability assay.

[23] = test system: SW 954; format: functional, cell-based, Homo sapiens; conditions: Homo sapiens, SW 954;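 also: growth inhibition of SW954 human cancer cells, read out as cell viability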
Description: SANGER: Inhibition of human SW954 cell growth in a cell viability assay.

[24] = test system: BT-474; format: functional, cell-based, Homo sapiens; conditions: Homo sapiens, BT-474
Description: SANGER: Inhibition of human BT-474 cell growth in a cell viability assay.

[25] = test system: OMC-1; format: functional, cell-based, Homo sapiens; conditions: Homo sapiens, OMC-1;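 also: growth inhibition of the OMC-1 cell line, measured by a cell viability assay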
Description: SANGER: Inhibition of human OMC-1 cell growth in a cell viability assay.

[26] = test system: NCI-H226; format: functional, cell-based, Homo sapiens; conditions: Homo sapiens, NCI-H226;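 also: cell viability read-out used to gauge growth inhibition of the cells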
Description: SANGER: Inhibition of human NCI-H226 cell growth in a cell viability assay.

[27] = test system: EW-13; format: functional, cell-based, Homo sapiens; conditions: Homo sapiens, EW-13; read-out: IC50;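 also: growth inhibition of EW-13 cells, read out with a cell viability assay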
Description: SANGER: Inhibition of human EW-13 cell growth in a cell viability assay.

[28] = test system: NCI-H2126; format: functional, cell-based, Homo sapiens; conditions: Homo sapiens, NCI-H2126;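 also: growth inhibition of the cancer cell line, determined with a cell viability readout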
Description: SANGER: Inhibition of human NCI-H2126 cell growth in a cell viability assay.

[29] = test system: K562; format: functional, cell-based, Homo sapiens; conditions: Homo sapiens, K562
Description: SANGER: Inhibition of human K-562 cell growth in a cell viability assay.

[30] = test system: TE-8; format: functional, cell-based, Homo sapiens; conditions: Homo sapiens, TE-8;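 also: growth inhibition of TE-8 cells, measured with a cell viability readout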
Description: SANGER: Inhibition of human TE-8 cell growth in a cell viability assay.

[31] = test system: U-266; format: functional, cell-based, Homo sapiens; conditions: Homo sapiens, U-266
Description: SANGER: Inhibition of human U-266 cell growth in a cell viability assay.

[32] = test system: NB5; format: functional, cell-based, Homo sapiens; conditions: Homo sapiens, NB5;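 also: growth inhibition of NB5 cells, read out as cell viability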
Description: SANGER: Inhibition of human NB5 cell growth in a cell viability assay.

[33] = test system: SK-N-DZ; format: functional, cell-based, Homo sapiens; conditions: Homo sapiens, SK-N-DZ; read-out: IC50;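 also: growth inhibition of the cancer cell line, read out through a viability assay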
Description: SANGER: Inhibition of human SK-N-DZ cell growth in a cell viability assay.

[34] = test system: MPP-89; format: functional, cell-based, Homo sapiens; conditions: Homo sapiens, MPP-89;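 also: growth inhibition of human MPP-89 cells, read out with a cell viability assay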
Description: SANGER: Inhibition of human MPP-89 cell growth in a cell viability assay.

[35] = test system: SK-LMS-1; format: functional, cell-based, Homo sapiens; conditions: Homo sapiens, SK-LMS-1;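 also: growth inhibition of human SK-LMS-1 cells, read out with a cell viability assay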
Description: SANGER: Inhibition of human SK-LMS-1 cell growth in a cell viability assay.

[36] = test system: MOLT-4; format: functional, cell-based, Homo sapiens; conditions: Homo sapiens, MOLT-4;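 also: growth inhibition of MOLT-4 cells, determined with a cell viability readout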
Description: SANGER: Inhibition of human MOLT-4 cell growth in a cell viability assay.

[37] = test system: EW-3; format: functional, cell-based, Homo sapiens; conditions: Homo sapiens, EW-3;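 also: cell viability assay read-out, IC50 reflects inhibition of growth of the EW-3 cells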
Description: SANGER: Inhibition of human EW-3 cell growth in a cell viability assay.

[38] = test system: ALL-PO; format: functional, cell-based, Homo sapiens; conditions: Homo sapiens, ALL-PO;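 also: growth inhibition of ALL-PO cells, read out by a cell viability assay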
Description: SANGER: Inhibition of human ALL-PO cell growth in a cell viability assay.

[39] = test system: NCI-H720; format: functional, cell-based, Homo sapiens; conditions: Homo sapiens, NCI-H720;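 also: growth inhibition of human NCI-H720 cells determined by a cell viability assay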
Description: SANGER: Inhibition of human NCI-H720 cell growth in a cell viability assay.

[40] = test system: MV4-11; format: functional, cell-based, Homo sapiens, MV-4-11; conditions: Homo sapiens, MV4-11;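 also: cell viability readout measuring growth inhibition of human MV-4-11 cells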
Description: SANGER: Inhibition of human MV-4-11 cell growth in a cell viability assay.

[41] = test system: VA-ES-BJ; format: functional, cell-based, Homo sapiens; conditions: Homo sapiens, VA-ES-BJ;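 also: growth inhibition of the VA-ES-BJ cell line, read out by a cell viability assay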
Description: SANGER: Inhibition of human VA-ES-BJ cell growth in a cell viability assay.

[42] = test system: KALS-1; format: functional, cell-based, Homo sapiens; conditions: Homo sapiens, KALS-1; read-out: IC50;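 also: growth inhibition of KALS-1 cells, determined with a cell viability assay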
Description: SANGER: Inhibition of human KALS-1 cell growth in a cell viability assay.

[43] = test system: RXF 393; format: functional, cell-based, Homo sapiens; conditions: Homo sapiens, RXF 393;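 also: growth inhibition of human RXF 393 cells, read out with a cell viability assay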
Description: SANGER: Inhibition of human RXF393 cell growth in a cell viability assay.

[44] = test system: ES1; format: functional, cell-based, Homo sapiens; conditions: Homo sapiens, ES1;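 also: growth inhibition of ES1 cells, read out with a cell viability assay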
Description: SANGER: Inhibition of human ES1 cell growth in a cell viability assay.

[45] = test system: GCIY; format: functional, cell-based, Homo sapiens; conditions: Homo sapiens, GCIY;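 also: growth inhibition of the human GCIY cell line, read out by a cell viability assay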
Description: SANGER: Inhibition of human GCIY cell growth in a cell viability assay.

[46] = test system: NCI-H1355; format: functional, cell-based, Homo sapiens; conditions: Homo sapiens, NCI-H1355;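 also: growth inhibition of human NCI-H1355 cells, read out by a cell viability assay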
Description: SANGER: Inhibition of human NCI-H1355 cell growth in a cell viability assay.

[47] = test system: GI-ME-N; format: functional, cell-based, Homo sapiens; conditions: Homo sapiens, GI-ME-N;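 also: growth inhibition of human GI-ME-N cells, read out with a cell viability assay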
Description: SANGER: Inhibition of human GI-ME-N cell growth in a cell viability assay.

[48] = test system: HCE-4; format: functional, cell-based; conditions: Homo sapiens;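 also: cell viability assay measuring inhibition of growth in the human HCE-4 cell line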
Description: SANGER: Inhibition of human HCE-4 cell growth in a cell viability assay.

[49] = test system: IA-LM; format: functional, cell-based; conditions: Homo sapiens;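 also: cell viability assay measuring growth inhibition of human IA-LM cells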
Description: SANGER: Inhibition of human IA-LM cell growth in a cell viability assay.

Nc1ccccc1NC(=O)c1ccc(CNC(=O)OCc2cccnc2)cc1 [ENTINOSTAT]
IC50 [1]: 1930 nM | IC50 [2]: 773 nM | IC50 [3]: 4.9 µM | IC50 [4]: 2410 nM | IC50 [5]: > 5 µM | IC50 [6]: 4.11 µM | IC50 [7]: > 5 µM | IC50 [8]: 230 nM | IC50 [9]: > 5 µM | IC50 [10]: 3.52 µM | IC50 [11]: > 5 µM | IC50 [12]: 2050 nM | IC50 [13]: 3.6 µM | IC50 [14]: > 5 µM | IC50 [15]: > 5 µM | IC50 [16]: > 5 µM | IC50 [17]: 2420 nM | IC50 [18]: > 5 µM | IC50 [19]: 510 nM | IC50 [20]: 497 nM | IC50 [21]: 313 nM | IC50 [22]: 435 nM | IC50 [23]: 760 nM | IC50 [24]: 1520 nM | IC50 [25]: > 5 µM | IC50 [26]: > 5 µM | IC50 [27]: > 5 µM | IC50 [28]: > 5 µM | IC50 [29]: 1390 nM | IC50 [30]: 369 nM | IC50 [31]: 2850 nM | IC50 [32]: 1660 nM | IC50 [33]: 1250 nM | IC50 [34]: 2330 nM | IC50 [35]: > 5 µM | IC50 [36]: 1030 nM | IC50 [37]: > 5000 nM | IC50 [38]: 63.6 nM | IC50 [39]: 2170 nM | IC50 [40]: 530 nM | IC50 [41]: > 5 µM | IC50 [42]: 705 nM | IC50 [43]: > 5 µM | IC50 [44]: 113 nM | IC50 [45]: > 5 µM | IC50 [46]: 2120 nM | IC50 [47]: 4.06 µM

CC1=C(/C=C/C(C)=C/C=C/C(C)=C/C(=O)O)C(C)(C)CCC1 [TRETINOIN]
IC50 [1]: > 10000 nM | IC50 [2]: > 10000 nM | IC50 [3]: > 10 µM | IC50 [4]: > 10000 nM | IC50 [5]: 9.74 µM | IC50 [6]: > 10 µM | IC50 [48]: > 10 µM | IC50 [7]: > 10 µM | IC50 [8]: 3860 nM | IC50 [9]: > 10 µM | IC50 [10]: > 10 µM | IC50 [12]: > 10000 nM | IC50 [13]: > 10 µM | IC50 [14]: > 10 µM | IC50 [15]: > 10 µM | IC50 [16]: > 10 µM | IC50 [17]: > 10000 nM | IC50 [18]: > 10 µM | IC50 [19]: 1650 nM | IC50 [20]: > 10000 nM | IC50 [21]: > 10000 nM | IC50 [22]: > 10000 nM | IC50 [23]: > 10000 nM | IC50 [24]: > 10000 nM | IC50 [25]: > 10 µM | IC50 [26]: > 10 µM | IC50 [27]: 7.61 µM | IC50 [28]: > 10 µM | IC50 [29]: > 10000 nM | IC50 [30]: > 10000 nM | IC50 [49]: > 10 µM | IC50 [31]: 4120 nM | IC50 [32]: > 10000 nM | IC50 [33]: > 10000 nM | IC50 [34]: > 10000 nM | IC50 [35]: > 10 µM | IC50 [36]: > 10000 nM | IC50 [37]: 480 nM | IC50 [38]: 6870 nM | IC50 [39]: 1030 nM | IC50 [40]: 21 nM | IC50 [41]: > 10 µM | IC50 [42]: > 10000 nM | IC50 [43]: > 10 µM | IC50 [44]: > 10000 nM | IC50 [45]: > 10 µM | IC50 [46]: > 10000 nM | IC50 [47]: > 10 µM

NC(=O)c1ccc(N(C(N)=O)c2c(F)cccc2F)nc1-c1ccc(F)cc1F [VX-702]
IC50 [1]: > 2000 nM | IC50 [2]: > 2000 nM | IC50 [3]: > 2 µM | IC50 [4]: > 2000 nM | IC50 [5]: > 2 µM | IC50 [6]: > 2 µM | IC50 [48]: > 2 µM | IC50 [7]: > 2 µM | IC50 [8]: 335 nM | IC50 [9]: > 2 µM | IC50 [10]: > 2 µM | IC50 [12]: > 2000 nM | IC50 [13]: > 2 µM | IC50 [14]: > 2 µM | IC50 [15]: > 2 µM | IC50 [16]: > 2 µM | IC50 [17]: > 2000 nM | IC50 [18]: > 2 µM | IC50 [19]: > 2000 nM | IC50 [20]: > 2000 nM | IC50 [21]: > 2000 nM | IC50 [22]: > 2000 nM | IC50 [23]: > 2000 nM | IC50 [24]: > 2000 nM | IC50 [25]: > 2 µM | IC50 [26]: > 2 µM | IC50 [27]: > 2 µM | IC50 [28]: > 2 µM | IC50 [29]: > 2000 nM | IC50 [30]: > 2000 nM | IC50 [49]: > 2 µM | IC50 [31]: > 2000 nM | IC50 [32]: > 2000 nM | IC50 [33]: > 2000 nM | IC50 [34]: > 2000 nM | IC50 [35]: > 2 µM | IC50 [36]: > 2000 nM | IC50 [37]: 666 nM | IC50 [38]: > 2000 nM | IC50 [39]: 16.8 nM | IC50 [40]: > 2000 nM | IC50 [41]: > 2 µM | IC50 [42]: > 2000 nM | IC50 [43]: > 2 µM | IC50 [44]: > 2000 nM | IC50 [45]: > 2 µM | IC50 [46]: > 2000 nM | IC50 [47]: > 2 µM
